Columns and labels:
[1] = biological target: Y641N EZH2 (Homo sapiens, UniProt Q15910, Y641N); assay: Y641N EZH2 activity inhibition assay (as EZH2 assay, reconstituted H3K27Me2 oligonucleosomes as substrate); type: biochemical; settings: Y641N EZH2 mutant enzyme
[2] = biological target: EZH2 (Homo sapiens, UniProt Q15910); assay: EZH2 activity inhibition assay (rPRC2, 3H SAM, biotinylated oligonucleosomes, FlashPlate); type: biochemical; settings: rPRC2, 2 nM EZH2, 0.2 μM 3H SAM, top concentration 80 μM
EZH2, sequence (Q15910 whole entry): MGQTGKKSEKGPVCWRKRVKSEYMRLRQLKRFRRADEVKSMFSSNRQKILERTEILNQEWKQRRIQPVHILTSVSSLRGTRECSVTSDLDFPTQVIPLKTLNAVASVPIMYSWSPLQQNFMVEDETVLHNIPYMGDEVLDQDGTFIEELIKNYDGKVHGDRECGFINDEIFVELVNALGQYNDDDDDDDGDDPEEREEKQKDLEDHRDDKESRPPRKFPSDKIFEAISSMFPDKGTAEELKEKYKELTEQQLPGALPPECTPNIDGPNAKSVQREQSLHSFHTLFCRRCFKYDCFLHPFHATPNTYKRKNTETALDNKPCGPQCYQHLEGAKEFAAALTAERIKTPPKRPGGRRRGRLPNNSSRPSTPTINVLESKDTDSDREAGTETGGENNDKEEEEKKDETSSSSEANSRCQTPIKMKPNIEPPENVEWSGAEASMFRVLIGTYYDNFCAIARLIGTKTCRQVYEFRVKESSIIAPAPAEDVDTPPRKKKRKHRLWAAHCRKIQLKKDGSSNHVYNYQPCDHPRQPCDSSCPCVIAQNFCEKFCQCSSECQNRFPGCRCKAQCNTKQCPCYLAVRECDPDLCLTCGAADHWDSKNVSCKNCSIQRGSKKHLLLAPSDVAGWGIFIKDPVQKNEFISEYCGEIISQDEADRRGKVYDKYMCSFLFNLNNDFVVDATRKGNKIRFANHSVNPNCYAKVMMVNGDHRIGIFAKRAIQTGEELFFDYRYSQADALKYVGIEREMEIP
EZH2, sequence (O75530 whole entry partner): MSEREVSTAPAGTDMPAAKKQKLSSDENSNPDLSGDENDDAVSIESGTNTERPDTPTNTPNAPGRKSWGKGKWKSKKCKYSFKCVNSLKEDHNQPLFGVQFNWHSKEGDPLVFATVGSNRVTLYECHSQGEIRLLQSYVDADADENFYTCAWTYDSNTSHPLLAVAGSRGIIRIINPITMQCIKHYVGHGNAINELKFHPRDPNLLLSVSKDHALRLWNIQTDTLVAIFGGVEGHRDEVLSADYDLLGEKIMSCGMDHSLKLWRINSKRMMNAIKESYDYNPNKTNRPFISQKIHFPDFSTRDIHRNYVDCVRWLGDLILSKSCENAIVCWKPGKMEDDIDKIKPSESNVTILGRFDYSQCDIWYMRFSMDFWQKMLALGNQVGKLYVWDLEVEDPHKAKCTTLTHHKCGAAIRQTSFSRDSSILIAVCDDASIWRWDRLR
EZH2, sequence (Q15022 whole entry partner): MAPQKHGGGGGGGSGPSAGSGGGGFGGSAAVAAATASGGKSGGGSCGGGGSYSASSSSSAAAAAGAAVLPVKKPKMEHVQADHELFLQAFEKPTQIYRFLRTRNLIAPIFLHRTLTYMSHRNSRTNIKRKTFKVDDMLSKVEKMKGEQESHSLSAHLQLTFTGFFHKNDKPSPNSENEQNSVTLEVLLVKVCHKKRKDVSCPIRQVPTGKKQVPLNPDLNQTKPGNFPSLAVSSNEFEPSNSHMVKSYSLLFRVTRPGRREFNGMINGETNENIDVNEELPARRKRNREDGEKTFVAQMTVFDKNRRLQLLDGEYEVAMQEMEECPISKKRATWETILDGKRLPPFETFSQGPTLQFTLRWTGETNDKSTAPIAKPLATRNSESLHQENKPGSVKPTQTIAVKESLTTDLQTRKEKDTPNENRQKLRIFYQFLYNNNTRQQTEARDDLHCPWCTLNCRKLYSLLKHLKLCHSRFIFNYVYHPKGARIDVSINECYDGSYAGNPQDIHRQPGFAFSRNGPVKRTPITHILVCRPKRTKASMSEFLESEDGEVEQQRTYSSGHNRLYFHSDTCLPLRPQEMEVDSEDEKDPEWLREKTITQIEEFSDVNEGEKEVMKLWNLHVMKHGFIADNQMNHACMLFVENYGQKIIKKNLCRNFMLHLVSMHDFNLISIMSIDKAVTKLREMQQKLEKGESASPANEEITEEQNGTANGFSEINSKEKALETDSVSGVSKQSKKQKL

Y641N EZH2, sequence (Q15910 whole entry Y641N): as the sequence (Q15910 whole entry) above, with Y641N counted along it
Y641N EZH2, sequence (O75530 whole entry partner): as the sequence (O75530 whole entry partner) above
Y641N EZH2, sequence (Q15022 whole entry partner): as the sequence (Q15022 whole entry partner) above

Q: `Cc1cc(C)c(CNC(=O)c2ccc([C@H](C)Oc3ccccc3)cc2)c(O)n1` [Compound I-31, (S)—N-((2-hydroxy-4,6-dimethylpyridin-3-yl)methyl)-4-(1-phenoxyethyl)benzamide] was tested. Which IC50 [1] did it give?
A: < 1000 nM

Q: And the IC50 [2]?
A: < 1000 nM

Q: For `Cc1cc(C)c(CNC(=O)c2ccc(COc3ccccc3)c(C)c2)c(=O)[nH]1` [Compound I-54, N-((2-hydroxy-4,6-dimethylpyridin-3-yl)methyl)-3-methyl-4-(phenoxymethyl)benzamide], which IC50 [1] is on record?
A: 1000 to 10000 nM

Q: And the IC50 [2]?
A: < 1000 nM

Q: `Cc1cc(C)c(CNC(=O)c2ccc(CN(C)c3ccccc3)cc2)c(=O)[nH]1` [Compound I-36, N-((2-hydroxy-4,6-dimethylpyridin-3-yl)methyl)-4-((methyl(phenyl)amino)methyl)benzamide] was tested. Which IC50 [1] did it give?
A: > 80000 nM

Q: And the IC50 [2]?
A: 10000 to 50000 nM

Q: For `Cc1cc(C)c(CNC(=O)c2ccc(C(C)N3CCCCC3=O)cc2)c(=O)[nH]1` (stereo not shown) [Compound I-88, N-((2-hydroxy-4,6-dimethylpyridin-3-yl)methyl)-4-(1-(2-oxopiperidin-1-yl)ethyl)benzamide], which IC50 [1] is on record?
A: > 80000 nM

Q: And the IC50 [2]?
A: 1000 to 10000 nM

Q: `Cc1cc(C)c(CN(C)C(=O)c2ccc(Oc3cccc(-c4ccncn4)c3C#N)c(Cl)c2)c(O)n1` [Compound I-17, 3-chloro-4-(2-cyano-3-(pyrimidin-4-yl)phenoxy)-N-((2-hydroxy-4,6-dimethylpyridin-3-yl)methyl)-N-methylbenzamide] was tested. Which IC50 [1] did it give?
A: > 50000 nM

Q: And the IC50 [2]?
A: 1000 to 10000 nM

Q: For `CNc1cc(C)[nH]c(=O)c1CNC(=O)c1ccc(Oc2ccccc2)cc1` [Compound I-194, N-((2-hydroxy-6-methyl-4-(methylamino)pyridin-3-yl)methyl)-4-phenoxybenzamide], which IC50 [1] is on record?
A: > 80000 nM

Q: What about the IC50 [2] of the same compound?
A: < 1000 nM

Q: What does the source list for `Cc1cc(C)c(CNC(=O)c2ccc(Oc3ccccc3)cc2Cl)c(=O)[nH]1` [Compound I-22]?
A: IC50 [1]: 1000 to 10000 nM; IC50 [2]: < 1000 nM

Q: `Cc1cc(C)c(CNC(=O)c2ccc(COc3ccccc3)cc2C)c(=O)[nH]1` [Compound I-27, N-((2-hydroxy-4,6-dimethylpyridin-3-yl)methyl)-2-methyl-4-(phenoxymethyl)benzamide] was tested. Which IC50 [1] did it give?
A: 1000 to 10000 nM

Q: And the IC50 [2]?
A: < 1000 nM

Q: `Cc1cc(C)c(CNC(=O)c2ccc([C@H](C)Oc3ccccc3C#N)cc2)c(=O)[nH]1` [Compound I-163] was tested. Which IC50 [1] did it give?
A: < 1000 nM

Q: And the IC50 [2]?
A: < 1000 nM

Q: Which IC50 [1] does the source give for `Cc1cc(C)c(CNC(=O)c2ccc(C(C)Oc3ccncn3)cc2)c(=O)[nH]1` (stereo not shown) [Compound I-155, N-((2-hydroxy-4,6-dimethylpyridin-3-yl)methyl)-4-(1-(pyrimidin-4-yloxy)ethyl)benzamide] here?
A: 1000 to 10000 nM

Q: What about the IC50 [2] of the same compound?
A: < 1000 nM

Q: Which IC50 [1] does the source give for `Cc1cc(C)c(CNC(=O)c2ccc(C(C)Oc3ccccc3)cc2Cl)c(=O)[nH]1` (stereo not shown) [Compound I-66, 2-chloro-N-((2-hydroxy-4,6-dimethylpyridin-3-yl)methyl)-4-(1-phenoxyethyl)benzamide] here?
A: < 1000 nM

Q: What about the IC50 [2] of the same compound?
A: < 1000 nM

Q: Which IC50 [1] does the source give for `Cc1cc(C)c(CNC(=O)c2ccc([S+]([O-])c3ccccc3)cc2)c(=O)[nH]1` (stereo not shown) [Compound I-29, N-((2-hydroxy-4,6-dimethylpyridin-3-yl)methyl)-4-(phenylsulfinyl)benzamide] here?
A: > 80000 nM

Q: What about the IC50 [2] of the same compound?
A: 10000 to 50000 nM

Q: Which IC50 [1] does the source give for `Cc1cc(C)c(CNC(=O)c2ccc(C(C)Oc3ccccc3C)cc2)c(=O)[nH]1` (stereo not shown) [Compound I-38, N-((2-hydroxy-4,6-dimethylpyridin-3-yl)methyl)-4-(1-(o-tolyloxy)ethyl)benzamide] here?
A: 1000 to 10000 nM

Q: What about the IC50 [2] of the same compound?
A: < 1000 nM

Q: Which results are given for `Cc1cc(C)c(CNC(=O)c2ccc([C@@H](C)Oc3cccc(C#N)c3)cc2)c(=O)[nH]1` [Compound I-168]?
A: IC50 [1]: > 80000 nM; IC50 [2]: 1000 to 10000 nM

From US9206128B2 (Constellation Pharmaceuticals, Inc., priority 2011, dated 2015)
